Reference: patent US5068337A, “1,4-dihydropyridines and their ability to inhibit blood platelet aggregation, inhibit thromboxane synthetase and phospholipase” (John Wyeth & Brother Limited, priority 1984, dated 1991)

Columns and labels:
thromboxane synthetase = test: inhibition of thromboxane production (TxB2 radio-immunoassay, rabbit platelet rich plasma); type: cell-based; conditions: Oryctolagus cuniculus, rabbit PRP, adenosine diphosphate and adrenalin, read-out: IC50 (50% inhibition of TxB2)
Method: The compounds of formula I were tested for their ability to inhibit thromboxane production by the following standard test:
a) Generation of thromboxanes
Blood (approx. 75 ml) is obtained from an anaesthetised rabbit and centrifuged at 200 g for 10 minutes to obtain platelet rich plasma (PRP). An aliquot of PRP is incubated for 10 minutes at 37° C. in the presence of vehicle or drug. Platelet aggregation is induced by the addition of adenosine diphosphate and adrenalin. The tubes are incubated for 3 minutes, centrifuged at 10,000 for 3 minutes and a […] aliquot of the supernatant taken for radio-immunoassay of thromboxane B2 (TxB2).
b) Radio-immunoassay of TxB2
The total incubation volume is 150μ containing 50μl of ^3 H - TxB2 (0.005 μCi), […] of sample or authentic TxB2 ranging from 5 to 300 pg per tube as standards and 50 μl of rabbit anti-sera to TxB2 (in a concentration which will bind 50% of H-TxB2) After incubation for 1 hour at room temperature the tubes are further incubated for 16-20 hours at 4° C. 1 ml of dextran-coated charcoal is then added to the tubes which are further incubated on ice for 10 minutes. Following the incubation the samples are centrifuged at 10,000 g for 10 minutes and […] of the supernatant added to 5 ml of scintillation cocktail. Measurement of the radioactivity in the supernatant quantifies the amount of [^3 H]-TxB2 bound by the antibody. The concentration of unlabelled TxB2 in the sample is then determined from a linear standard curve.
IC50 values represent the concentrations of drug which achieve 50% inhibition of TxB2.

[1] = test system: blood platelet aggregation; test: inhibition of blood platelet aggregation (arachidonic acid induced, rabbit platelet rich plasma); type: cell-based, rabbit (New Zealand White); conditions: IC50 dazoxiben / IC50 test; 250 μM arachidonic acid, rabbit PRP
Method: Compounds of formula I were tested for their ability to inhibit blood platelet aggregation by a modification of the procedure of Fantl, Australian J.Exp.Biol- Med.Sci. 45, 355-62 1967.
Since platelet aggregation is the initial step in thrombus formation it -is considered that compounds which prevent aggregation or reduce platelet adhesiveness may inhibit the initiation of the atherosclerotic process. The effect of drugs on adhesiveness is measured in platelet-rich plasma containing a small amount of arachidonic acid which markedly increases aggregation in vitro and may be a physiological agent for doing so in vivo. The actual test procedure used in described below.
New Zealand White rabbits (2.5-3kg) are anaesthetised with an injection, via the marginal ear vein, of […]. The carotid artery is cannulated and blood (100-150 ml) is withdrawn into 50 ml syringes containing 3.8% sodium citrate (Ratio blood: citrate =9:1).
Blood is centrifuged at 200 g (1500 r.p.m.) for 10 minutes at 5° C. and the platelet rich plasma (PRP) removed. The platelets are then kept at room temperature in a screw topped plastic centrifuge tube for the duration of the experiment.
A twin channel platelet aggregometer--(HU aggregometer, A. Browne Ltd, Leicester, UK) is used. 1.0 ml aliquots of PRP are prewarmed for 5-10 minutes and stirred continuously at 1100 rpm. Aggregation is induced by addition of 250μM arachidonic acid, (8μl volume) to the PRP samples. The aggregometer output is set at maximum and the chart recorder sensitivity is altered to give a full scale deflection to this arachidonic acid response.
Control responses are recorded as the maximum deflection obtained after addition of 250μM arachidonic acid.
PRP samples are preincubated for 1 minute with the test compounds followed by arachidonic acid addition. The maximum deflection after the addition of arachidonic acid is then recorded. All drugs are screened initially at 10^-4 M (final concentration), i.e. 10μl of a 1×10^-2 M stock solution of the drug dissolved in distilled water is added to the PRP.
Dazoxiben, a thromboxane synthetase inhibitor (Randall, M. J. et al Research 23 145-162, 1981)is used as a positive control and all test components are compared with Dazoxiben. The activity of the test compound is expressed as the ratio IC50 Dazaxiben/IC50 Test where IC50 is the dose required to inhibit the A.A. induced aggregation by 50%.

[2] = test system: spontaneously hypertensive rats; test: antihypertensive activity in spontaneously hypertensive rats (tail cuff systolic pressure); type: in vivo, rat
Method: The compounds of formula I were tested for antihypertensive activity by the following standard procedure:
The blood pressures of male or female spontaneously hypertensive rats are measured in a 37° C constant temperature housing by means of a tail cuff. Rats with systolic pressures below 155 mmHg are discarded. Groups of rats are dosed orally with the test substance in a suitable vehicle or with vehicle alone. Systolic pressures are recorded before dosing and at selected time points afterwards. Heart rates are derived from caudal artery pulses. Results are analysed statistically by means of 2 way analysis of variance (within group).

isolated rat portal vein = test: calcium antagonist activity: response of isolated rat portal vein to increasing calcium ion concentration in vitro; conditions: read-out: molar concentration required to reduce the response by 50%
From the text: In this-test a-molar concentration of 2×10^-7 M of 1,4-dihydro-2-(imidazol- 1-ylmethyl)-6-methyl 4-(3-nitrophenyl)pyridine-3, 5-dicarboxylic acid 3-ethyl 5-methyl ester was required to reduce the response by 50%.

human platelet PLA2 = test: Phospholipase A2 (PLA2) inhibition, hydrolysis of E.coli membrane phospholipids by human platelet PLA2; type: biochemical; conditions: 100 μM
Method: Of particular interest for this activity are compounds of formula I wherein Ar represents an aryl radical having a 2-nitro substituent. […] PLA2 activity was assayed by a procedure based on Franson, R.C., Chapter 12. Intracellular Metabolism of Ingested Phospholipids. Liposomes: from Physical Structure to Therapeutic Applications. North-Holland Biomedical Press, 1981, pp 349-380 and involving measuring the hydrolysis of E.coli membrane phospholipids and the release of free [1-^14 ]oleic acid from the C-2 position of phospholipids by human platelet PLA2.

Compound | IC50 (thromboxane synthetase) [µM] | Inhibition of blood platelet aggregation potency ratio (dazoxiben = 1) [1] | BLOOD PRESSURE as % of pre-dose level ([2]; 0.003 mmol/kg po, 6 hrs) [%] | BLOOD PRESSURE as % of pre-dose level ([2]; 0.003 mmol/kg po, 24 hrs) [%] | BLOOD PRESSURE as % of pre-dose level ([2]; 0.003 mmol/kg po, t = 2 hrs) [%] | BLOOD PRESSURE as % of pre-dose level ([2]; 0.03 mmol/kg po, 6 hrs) [%] | BLOOD PRESSURE as % of pre-dose level ([2]; 0.03 mmol/kg po, 24 hrs) [%] | BLOOD PRESSURE as % of pre-dose level ([2]; 0.03 mmol/kg po, t = 2 hrs) [%] | BLOOD PRESSURE as % of pre-dose level ([2]; 0.15 mmol/kg po, 6 hrs) [%] | BLOOD PRESSURE as % of pre-dose level ([2]; 0.15 mmol/kg po, 24 hrs) [%] | BLOOD PRESSURE as % of pre-dose level ([2]; 0.15 mmol/kg po, t = 2 hrs) [%] | IC50 (isolated rat portal vein) [µM] | inhibition of PLA2 activity (human platelet PLA2) [%]
COC(=O)C1=C(C)NC(CCn2cnc3ccccc32)=C(C(=O)OC)C1c1cccc(Cl)c1Cl (stereo not drawn) [Example 5, 2-[2-(1-Benzimidazolyl)ethyl]-4-[2,3-dichlorophenyl]-1,4-dihydro-6-methylpyridine-3,5-dicarboxylic acid dimethylester] | 12.3 | – | – | – | – | – | – | – | – | – | – | – | –
COC(=O)C1=C(C)NC(CCn2ccnc2)=C(C(=O)OC)C1c1ccccc1[N+](=O)[O-] (stereo not drawn) [Example 3, 1,4-Dihydro-2-[2-(1-imidazolyl)ethyl]-6-methyl-4-(2-nitrophenyl)pyridine-3,5-dicarboxylic acid dimethyl ester] | – | 1.64 | – | – | – | – | – | – | – | – | – | – | –
CCOC(=O)C1=C(COc2cccnc2)NC(C)=C(C(=O)OC)C1c1cccc([N+](=O)[O-])c1 (stereo not drawn) [Example 4, 1,4-Dihydro-2methyl-4-(3-nitrophenyl)-6-[(3-pyridyloxy)methyl]pyridine-3,5-dicarboxylic acid 5-ethyl-3-methyl diester] | – | 1.1 | – | – | – | – | – | – | – | – | – | – | –
CCOC(=O)C1=C(Cn2ccnc2)NC(C)=C(C(=O)OC)C1c1cccc([N+](=O)[O-])c1 (stereo not drawn) [Example 1, 1,4-Dihydro-2-(imidazol-1-ylmethyl)-6-methyl-4-(3-nitro-phenyl)pyridine-3,5-dicarboxylic acid 3-ethyl 5-methyl diester] | 5 | 1.2 | 70 | 83 | 65 | 62 | 105 | 48 | 46 | 85 | 42 | 0.2 | –
CCOC(=O)C1=C(C)NC(CCn2ccnc2)=C(C(=O)OCC)C1c1ccccc1[N+](=O)[O-] (stereo not drawn) [Example 2, 1,4-Dihydro-2-[2-(imidazol-1-yl)-ethyl]-6-methyl-4-(2-nitrophenyl)pyridine-3,5-dicarboxylic acid diethyl ester] | 2.3 | 0.79 | – | – | – | 99 | 105 | 63 | 42 | 74 | 35 | – | 77
